Assay results published in ChEMBL document CHEMBL5725201, “Cycloalkane derivatives” (2016).

Experiment: Electrophysiological Assay: Current record was obtained by an automated patch clamp system IonWorks Quattro (Molecular Devices Corporation) in Population Patch Clamp mode. The operation was conducted in accordance with the operating procedure of the system. A Dulbecco's phosphate buffer containing calcium and magnesium (Sigma) was used as an extracellular fluid, and a low Cl-buffer (100 mM K-gluconate, 40 mM KCl, 3.2 mM MgCl2, 5 mM EGTA, 5 mM Hepes, pH 7.3) was used as an intracellular fluid. A test compound was dissolved in dimethylsulfoxide (DMSO) to prepare a 30 mM stock solution, so as to produce 4-fold serial dilutions with the extracellular fluid for attaining a DMSO concentration of 0.3% in measurement.The hNav 1.7/β1/β2 cells cultured to a 70-80% confluent state in a T150 flask (Sumilon) were washed with PBS and subsequently with versene (Invitrogen Corp.), and collected by allowing to react with 0.05% trypsin (Invitrogen Corp.) at 37° C. for 3 minutes. After washing with a culture medium, the resultant cells were suspended in an extracellular fluid at a concentration of […] so as to be used for the measurement. The cell membrane was perforated by using an intracellular fluid including 100 ug/ml amphotericin B (Sigma). Current response was obtained at a sampling frequency of 10 kHz. […]
Assay type: cell-based

## Cc1c(O[C@H]2CCCC[C@@H]2c2c[nH]nc2N)ccc(S(=O)(=O)Nc2ccncn2)c1F
  IC50: 0.1 µM
